What all share (type): cell-based, rat
Data set [1] has as its system cilia (ACIII) in Tsc2-sh hippocampal neurons. Put plainly: cilia^HCA (GFP+ ACIII+ neurons) in Tsc2-sh neurons. Conditions: for ciliation, acute effect: 24 hrs at DIV20, concentrations that inhibited mTORC1 (8.5 μM 17-AGG, 9 μM GA, 5.5 μM rapamycin); for rescue of cilia at later ages in culture: four-day treatment between DIV16-20, endpoint DIV20. An excerpt: To investigate how mTORC1 dysregulation due to neuronal TSC loss affected ciliation, High Content image-based Assays (HCAs) were developed for unbiased quantification of cilia and mTORC1 activity (hereafter cilia^HCA and mTORC1^HCA) in primary neurons. As an in vitro model of TSC, rat hippocampal neurons transduced with lentiviral vectors (LV) expressing a short hairpin RNA (shRNA) were used directed against either the Tsc2 (Tsc2-sh) or the luciferase gene as a control (ctrl-sh) tagged with GFP. LV-mediated Tsc2 knockdown recapitulates several in vivo manifestations observed in mouse models of TSC (Di Nardo et al., Tuberous sclerosis complex activity is required to control neuronal stress responses in an mTOR-dependent manner; J Neurosci 29, 5926-5937 (2009); Di Nardo et al., Neuronal Tsc1/2 complex controls autophagy through AMPK-dependent regulation of ULK1; Hum Mol Genet 23, 3865-3874 (2014); Ebrahimi-Fakhari et al., Impaired Mitochondrial Dynamics and Mitophagy in Neuronal Models of Tuberous Sclerosis Complex; Cell Rep 17, 1053-1070 (2016); Ercan et al., Neuronal CTGF/CCN2 negatively regulates myelination in a mouse model of tuberous sclerosis complex; The Journal of experimental medicine 214, 681-697 (2017); Nie et al., The Stress-Induced Atf3-Gelsolin Cascade Underlies Dendritic Spine Deficits in Neuronal Models of Tuberous Sclerosis Complex; J Neurosci 35, 10762-10772 (2015); Nie et al., Tsc2-Rheb signaling regulates EphA-mediated axon guidance. Nat Neurosci 13, 163-172 (2010)). In vitro phenotypes include robust TSC2 protein downregulation and mTORC1 activation as shown by the time course of increased phosphorylation of ribosomal protein S6 at serine 240/244 (pS6) (FIGS. 8A-B). Both the cilia^HCA and mTORC1^HCA were optimized as imaged-based assays, where cilia and mTORC1 activity was monitored by immunofluorescent staining of ACIII to identify cilia and pS6 as a proxy of mTORC1 activation (FIGS. 8C-F). Neurons were transduced in culture at day in vitro (DIV) 1, and cilia and mTORC1 activity were assessed in a time course experiment at DIV2, 5, 7, 13, and 20 (FIG. 2A). LV-infected neurons with cilia or with phosphorylated S6 (GFP^+ ACIII^+ and GFP^+pS6^+ respectively) were identified by automated algorithms to detect subcellular structures and their co-localization specifically optimized for each assay. In control neurons, cilia development was observed between DIV2-5, which remained stable between DIV7 and DIV20 (FIGS. 2B, D). […] Reduced ciliation was validated by manual imaging and quantification of LV-infected neurons co-labeled with ACIII/centrin (FIGS. 8G-H). No changes in size or ACIII intensity were detected in the remaining cilia of the Tsc2-sh neurons (FIGS. 8I-J).
Rat hippocampal neurons were plated at a density of 20,000/well in 96-well plates (Greiner #655090) coated with Poly-D-Lysine (PDL) at 20 μg/ml. Neurons were transduced with lentivirus and processed for immunofluorescent staining at endpoint assay by fixation with 4% PFA followed by permeabilization in ice cold 100% Methanol. Neurons were then washed 3 times in PBS/0.05% Tween (PBT) containing 50 mM glycine and blocked in 2% bovine serum albumin (Sigma) in PBT (PBT/Block) at RT. For consistent and robust identification of the LV-infected neurons, cultures of both the cilia^HCA and mTORC1^HCA were stained with GFP antibody and co-labeled with ACIII or pS6 for the identification of respectively cilia and mTORC1 activity. Primary antibodies were incubated in PBT/Block overnight. The following day, neurons were washed in PBT and incubated with secondary antibodies followed by Hoechst staining. After washing with PBT, neurons were kept in PBS buffer. Aside from primary and secondary antibody administration, all the washing for immunofluorescent staining was done using the Agilent bravo automated liquid handler. […]

For data set [2], the system named is hspB1 mRNA in Tsc2-sh neurons. In words: qPCR of hspB1 mRNA in Tsc2-sh neurons. Conditions: 50 nM between DIV9-13. Here is the method: Tsc2-sh neurons were treated with 17-AGG and it was observed that increased hspB1 expression was reversed by the same dosing scheme that prevented cilia loss (50 nM between DIV9-13) (FIGS. 6A-D). To determine whether a similar dysregulation is present in the brains of TSC patients, the gene expression data from cortical tubers and unaffected brain tissue (Martin et al., The genomic landscape of tuberous sclerosis complex; Nat Commun 8, 15816 (2017)) was examined.
Total RNA was prepared with the RNA kit (Zimo Research) following the instructions of the manufacturer and quantified by a spectrophotometer. A total of 1 μg of poly(A) mRNA was used for reverse transcription using the Reverse Transcriptase (BIO-RAD). Real-time PCRs were performed using Power SYBG Green PCR Master Mix (Applied Biosystems). All quantitative PCR (qPCR) reactions were performed in triplicate and normalized against glyceraldehyde-3-phosphate dehydrogenase (GAPDH). Analysis was performed using QuantStudio™ 3 Real-Time PCR System (Thermo Fisher Scientific). The qPCR cycle was: 95° C. for 10 min followed by 40 cycles at 95° C. for 15 sec and 60° C. for 1 min.

Another data set concerns Tsc2-sh neurons. In words: Toxicity: number of nuclei per field in Tsc2-sh neurons. Conditions: four days (DIV9-13), nuclei stained at DIV13. Here is the method:
HSP90 inhibitors were tested to determine their effect on ciliation in TSC2-deficient neurons. Tsc2 was knocked down using an shRNA in primary rat neurons. The neurons were then treated with different doses of either CUDC-305 or NPV-HSP-990. To assess toxicity for CUDC-305, Tsc2-sh neurons were treated with increasing concentrations (6 nM, 12.5 nM, 25 nM, 50 nM, 100 nM, 200 nM, 400 nM) of CUDC-305 for four days (DIV9-13) and then stained for nuclei at DIV13 to determine the number of nuclei per field. […] The effect of ciliation of Tsc2-sh neurons after treatment with CUDC-305 was then examined.
Another HSP90 inhibitor, NPV-HSP-990, was examined for its effect on ciliation in TSC2-deficient neurons. To assess toxicity for NPV-HSP-990, Tsc2-sh neurons were treated with increasing concentrations (0.05 nM, 0.16 nM, 0.5 nM, 1.5 nM, 4.4 nM, 13.3 nM, 40 nM) of NPV-HSP-990 for four days (DIV9-13) and then stained for nuclei at DIV 13 to determine the number of nuclei per field.

Where [3] appears, read: four days (DIV9-13), any dose tested.

SMILES strings stand for the structures.

For the compound `C=CCNC1=C2C[C@@H](C)C[C@H](OC)[C@H](O)[C@@H](C)/C=C(\C)[C@H](OC(N)=O)[C@@H](OC)C=C/C=C(\C)C(=O)NC(=CC1=O)C2=O` [17-AGG, 3 S,5S,6R,7S,8E,10R,11S,12E,14E)-21-(allylamino)-6-hydroxy-5,11-dimethoxy-3,7,9,15-tetramethyl-16,20,22-trioxo-17-azabicyclo[16.3.1]docosa-8,12,14,18,21-pentaen-10-yl] carbamate], in data set [1], the “ciliation, acute effect” value was “Neither of the Hsp90 inhibitors nor rapamycin rescued ciliation” and the “rescue of cilia at later ages in culture” value is reported as “Neither rapamycin nor a four-day 17-AGG treatment regimen was able to rescue the cilia”. The EC50 in data set [1] (Rattus norvegicus, Hippocampal neuron, treatment between DIV9-13, read-out: EC50^cilia (cilia rescue)) was found to be 15 nM. The “increased hspB1 expression” value in data set [2] is “reversed”.
With `CN(C)c1cc2c(cc1Sc1nc3c(N)nccc3n1CCNCC(C)(C)C)OCO2` [CUDC-305, 4-amino-2-[[6-(dimethylamino)-1,3-benzodioxol-5-yl]thio]-N-(2,2-dimethylpropyl)-1H-imidazo[4,5-c]pyridine-1-ethanamine], the ciliation result in data set [1] (setting [3]) is recorded as “No increase”. For the same compound, the “doses at which the number of nuclei began to reduce (suggestive of toxicity)” value with Tsc2-sh neurons is recorded as “above 100 nM”.
Take `COc1cccc(-c2cc(F)ccc2[C@H]2Cc3nc(N)nc(C)c3C(=O)N2)n1` [NPV-HSP-990, (R)-2-amino-7-((R)-4-fluoro-2-(6-methoxypyridin-2-yl)phenyl)-4-methyl-7,8-dihydropyrido[4,3-d]pyrimidin-5(6H)-one]: the ciliation entry in data set [1] (setting [3]) was “not observed”. The “doses at which the number of nuclei began to reduce (suggestive of toxicity)” value in the data set with Tsc2-sh neurons is listed as “above 4.4 nM”.
In the case of `CO[C@H]1C[C@@H]2CC[C@@H](C)[C@@](O)(O2)C(=O)C(=O)N2CCCC[C@H]2C(=O)O[C@H]([C@H](C)C[C@@H]2CC[C@@H](O)[C@H](OC)C2)CC(=O)[C@H](C)/C=C(\C)[C@@H](O)[C@@H](OC)C(=O)[C@H](C)C[C@H](C)/C=C/C=C/C=C/1C` [rapamycin], the “ciliation, acute effect” value in data set [1] is recorded as “Neither of the Hsp90 inhibitors nor rapamycin rescued ciliation”. For the same compound, in data set [1], the “rescue of cilia at later ages in culture” value is “Neither rapamycin nor a four-day 17-AGG treatment regimen was able to rescue the cilia”. For the same compound, the ciliation entry in data set [1] (rapamycin 20 nM acute (1 day) treatment) is given as “no effect”; in data set [1] (rapamycin 20 nM for eight days between DIV5-13) it was “significant increase”; in data set [1] (rapamycin 20 nM for four days between DIV9-13), “significant increase”; in data set [1] (rapamycin 20 nM, later ages (DIV20) in culture), “no effect”.

The term EC50 denotes the concentration needed to bring the measured effect to its halfway point.
